Source: PubChem BioAssay AID330 (DTP/NCI, 2004)
Several values for one entry are separate records, joined by “and”; a condition that tells them apart may be missing. Identical values can stand only once. Toxic doses and inconclusive results are not listed.

Test system: P388 leukemia ip, CD2F1 mice, survival T/C
Assay: NCI In Vivo Anticancer Drug Screen. Data for tumor model P388 Leukemia (intraperitoneal) in CD2F1 (CDF1) mice
Details: endpoint: median survival time, higher = longer survival
Summary of the method: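 Mice carrying the transplanted tumor received test compound or vehicle. Survival was recorded in each group, and the value is the treated-group measurement divided by that of the vehicle-treated control group.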

[1] = dose: 50.0 mg/kg/injection, schedule: Q01DX005 (ip), vehicle: saline with Tween-80
[2] = dose: 100.0 mg/kg/injection, schedule: Q01DX005 (ip), vehicle: saline with Tween-80
[3] = dose: 200.0 mg/kg/injection, schedule: Q01DX005 (ip), vehicle: saline with Tween-80
[4] = dose: 50.0 mg/kg/injection, schedule: Q01DX009 (ip), vehicle: saline with Tween-80
[5] = dose: 100.0 mg/kg/injection, schedule: Q01DX009 (ip), vehicle: saline with Tween-80
[6] = dose: 200.0 mg/kg/injection, schedule: Q01DX009 (ip), vehicle: saline with Tween-80
[7] = dose: 25.0 mg/kg/injection, schedule: Q01DX005 (ip), vehicle: Klucel (hydroxypropylcellulose) (HPC)
[8] = dose: 100.0 mg/kg/injection, schedule: Q01DX001 (ip), vehicle: Klucel (hydroxypropylcellulose) (HPC)
[9] = dose: 100.0 mg/kg/injection, schedule: Q01DX005 (ip), vehicle: Klucel (hydroxypropylcellulose) (HPC)
[10] = dose: 200.0 mg/kg/injection, schedule: Q01DX001 (ip), vehicle: Klucel (hydroxypropylcellulose) (HPC)
[11] = dose: 400.0 mg/kg/injection, schedule: Q01DX009 (ip), vehicle: saline with Tween-80
[12] = dose: 50.0 mg/kg/injection, schedule: Q01DX005 (ip), vehicle: Klucel (hydroxypropylcellulose) (HPC)
[13] = dose: 100.0 mg/kg/injection, schedule: Q04DX003 (ip), vehicle: saline with Tween-80
[14] = dose: 200.0 mg/kg/injection, schedule: Q04DX003 (ip), vehicle: saline with Tween-80

COC(=O)c1ccc(C)[n+](C2OC(COC(=O)c3ccccc3)C(OC(=O)c3ccccc3)C2OC(=O)c2ccccc2)c1 (centres undefined)
T/C (dose: 50.0 mg/kg/injection, schedule: Q01DX005 (ip), vehicle: saline + Tween-80 + alcohol): 100 % of control
T/C (dose: 100.0 mg/kg/injection, schedule: Q01DX005 (ip), vehicle: saline + Tween-80 + alcohol): 100 % of control
T/C (dose: 200.0 mg/kg/injection, schedule: Q01DX005 (ip), vehicle: saline + Tween-80 + alcohol): 98 % of control

Cc1nn(C(=S)S)c(C)c1N=Nc1ccc(O)cc1
T/C [1]: 100 % of control
T/C [2]: 102 % of control
T/C [3]: 101 % of control

COC(=O)CC[C@@H](C)C1CC[C@H]2[C@@H]3CC[C@H]4C=C(O)C(=O)C[C@]4(C)[C@H]3C[C@H](OC(C)=O)[C@]12C (some centres undefined)
T/C (dose: 100.0 mg/kg/injection, schedule: Q04DX002 (ip), vehicle: Klucel (hydroxypropylcellulose) (HPC)): 102 % of control
T/C (dose: 200.0 mg/kg/injection, schedule: Q04DX002 (ip), vehicle: Klucel (hydroxypropylcellulose) (HPC)): 101 % of control
T/C (dose: 400.0 mg/kg/injection, schedule: Q04DX002 (ip), vehicle: Klucel (hydroxypropylcellulose) (HPC)): 108 % of control

Cc1cc(-c2ccccc2)n(C(C(=O)c2ccccc2)c2ccccc2)n1 (centres undefined)
T/C [4]: 101 % of control
T/C [5]: 106 % of control
T/C [6]: 100 % of control

CC(C)N1COCO[C@H]2CCC[C@@H]21
T/C [7]: 113 % of control
T/C [8]: 93 % of control
T/C [9]: 113 % of control
T/C [10]: 90 % of control

Brc1cnc2nc(Cc3ccccc3)[nH]c2c1
T/C (dose: 100.0 mg/kg/injection, schedule: Q01DX001 (ip), vehicle: saline with Tween-80): 97 % of control
T/C (dose: 200.0 mg/kg/injection, schedule: Q01DX001 (ip), vehicle: saline with Tween-80): 113 % of control
T/C (dose: 400.0 mg/kg/injection, schedule: Q01DX001 (ip), vehicle: saline with Tween-80): 97 % of control

Cc1onc(-c2ccccc2)c1C(C)(O)c1ccccc1 (centres undefined)
T/C [8]: 90 % of control
T/C [10]: 93 % of control
T/C (dose: 400.0 mg/kg/injection, schedule: Q01DX001 (ip), vehicle: Klucel (hydroxypropylcellulose) (HPC)): 88 % of control

CCOC(=O)C(C(=O)OCC)=C(C)C
T/C (dose: 21.3 mg/kg/injection, schedule: Q01DX009 (ip), vehicle: saline with Tween-80): 93 % of control
T/C (dose: 42.5 mg/kg/injection, schedule: Q01DX009 (ip), vehicle: saline with Tween-80): 90 % of control
T/C (dose: 85.0 mg/kg/injection, schedule: Q01DX009 (ip), vehicle: saline with Tween-80): 91 % of control
T/C (dose: 170.0 mg/kg/injection, schedule: Q01DX009 (ip), vehicle: saline with Tween-80): 93 % of control
T/C (dose: 177.0 mg/kg/injection, schedule: Q01DX009 (ip), vehicle: saline with Tween-80): 123 % of control
T/C [11]: 120 % of control

Cc1ccc([N+](=O)[O-])cc1NC(=O)Oc1cc(C)c(Br)c(C)c1
T/C [4]: 106 % of control
T/C [5]: 106 % of control
T/C [6]: 112 % of control

CCN(CC)CCCC(=O)O
T/C (dose: 50.0 mg/kg/injection, schedule: Q01DX005 (ip), vehicle: saline): 100 % of control
T/C (dose: 100.0 mg/kg/injection, schedule: Q01DX005 (ip), vehicle: saline): 100 % of control
T/C (dose: 200.0 mg/kg/injection, schedule: Q01DX005 (ip), vehicle: saline): 100 % of control

O=C(O)c1cc(-c2ccc(Cl)cc2)nc2c1ccc1ccccc12
T/C [7]: 100 % of control
T/C [12]: 100 % of control
T/C [9]: 100 % of control

Cc1nc(N)[nH]c(=O)c1CCCN=Cc1ccccc1
T/C (dose: 60.0 mg/kg/injection, schedule: Q01DX005 (ip), vehicle: Klucel (hydroxypropylcellulose) (HPC)): 108 % of control
T/C (dose: 120.0 mg/kg/injection, schedule: Q01DX005 (ip), vehicle: Klucel (hydroxypropylcellulose) (HPC)): 105 % of control
T/C (dose: 240.0 mg/kg/injection, schedule: Q01DX005 (ip), vehicle: Klucel (hydroxypropylcellulose) (HPC)): 96 % of control

CC(C)C(NC=O)C(=O)O (centres undefined)
T/C [12]: 101 % of control
T/C [1]: 91 % of control
T/C [9]: 101 % of control
T/C [2]: 98 % of control
T/C (dose: 200.0 mg/kg/injection, schedule: Q01DX005 (ip), vehicle: Klucel (hydroxypropylcellulose) (HPC)): 95 % of control
T/C [3]: 94 % of control

COC1C(C)OC(OC2CC(C)(O)C(C(=O)O)c3cc4c(c(O)c32)C(=O)c2c(O)cc3c(c2C4=O)OC2OC3(C)C(O)C(N(C)C)C2O)C(OC)C1(C)OC (centres undefined)
T/C (dose: 1.25 mg/kg/injection, schedule: Q04DX003 (ip), vehicle: other): 119 % of control
T/C (dose: 2.5 mg/kg/injection, schedule: Q04DX003 (ip), vehicle: other): 113 % of control
T/C (dose: 5.0 mg/kg/injection, schedule: Q04DX003 (ip), vehicle: other): 122 % of control
T/C (dose: 20.0 mg/kg/injection, schedule: Q04DX003 (ip), vehicle: other): 155 % of control

CCC(/C=C/c1ccccc1)=N\NC(=O)c1ccc(Cl)c(Cl)c1
T/C (dose: 60.0 mg/kg/injection, schedule: Q01DX005 (ip), vehicle: saline with Tween-80): 88 % of control and 89 % of control
T/C (dose: 120.0 mg/kg/injection, schedule: Q01DX005 (ip), vehicle: saline with Tween-80): 88 % of control
T/C (dose: 240.0 mg/kg/injection, schedule: Q01DX005 (ip), vehicle: saline with Tween-80): 92 % of control and 97 % of control

COc1ccc(-n2c(=O)c(N=Nc3ccc(S(=O)(=O)N=C(N)N)cc3)c(O)n(-c3ccc(Cl)cc3)c2=S)cc1
T/C (dose: 100.0 mg/kg/injection, schedule: Q01DX002 (ip), vehicle: Klucel (hydroxypropylcellulose) (HPC)): 99 % of control
T/C (dose: 200.0 mg/kg/injection, schedule: Q01DX002 (ip), vehicle: Klucel (hydroxypropylcellulose) (HPC)): 107 % of control
T/C (dose: 400.0 mg/kg/injection, schedule: Q01DX002 (ip), vehicle: Klucel (hydroxypropylcellulose) (HPC)): 106 % of control

O=C1c2ccccc2C(=O)C1(Br)c1ccccc1
T/C (dose: 100.0 mg/kg/injection, schedule: Q04DX002 (ip), vehicle: saline with Tween-80): 99 % of control
T/C (dose: 200.0 mg/kg/injection, schedule: Q04DX002 (ip), vehicle: saline with Tween-80): 101 % of control

O=S(=O)(NCCSSCCNS(=O)(=O)c1ccc(F)cc1)c1ccc(F)cc1
T/C (dose: 50.0 mg/kg/injection, schedule: Q01DX009 (ip), vehicle: Klucel (hydroxypropylcellulose) (HPC)): 95 % of control
T/C (dose: 100.0 mg/kg/injection, schedule: Q01DX009 (ip), vehicle: Klucel (hydroxypropylcellulose) (HPC)): 90 % of control
T/C (dose: 200.0 mg/kg/injection, schedule: Q01DX009 (ip), vehicle: Klucel (hydroxypropylcellulose) (HPC)): 89 % of control

CSc1cc(C)c(O)c(CO)c1
T/C (dose: 100.0 mg/kg/injection, schedule: Q04DX003 (ip), vehicle: other): 104 % of control
T/C (dose: 200.0 mg/kg/injection, schedule: Q04DX003 (ip), vehicle: other): 100 % of control
T/C (dose: 400.0 mg/kg/injection, schedule: Q04DX003 (ip), vehicle: other): 100 % of control

O=S(=O)(/N=C1C=C/C(=N\S(=O)(=O)c2ccccc2)C2C/1C2(c1ccccc1)c1ccccc1)c1ccccc1 (centres undefined)
T/C (dose: 50.0 mg/kg/injection, schedule: Q01DX001 (ip), vehicle: Klucel (hydroxypropylcellulose) (HPC)): 98 % of control
T/C [8]: 97 % of control
T/C [10]: 99 % of control

N#CS.[Cr+3].[NH-]CC[NH-].[NH-]CC[NH-].[NH-]CC[NH-]
T/C [4]: 104 % of control
T/C [5]: 95 % of control
T/C [13]: 100 % of control
T/C [14]: 104 % of control

CCCCCCCCCCCCCCCCC1(C)c2ccccc2N(C)C12C=Cc1cc([N+](=O)[O-])ccc1O2 (centres undefined)
T/C [13]: 103 % of control
T/C [14]: 100 % of control
T/C (dose: 400.0 mg/kg/injection, schedule: Q04DX003 (ip), vehicle: saline with Tween-80): 100 % of control

CC1NC(=O)OC12CCCCC2 (centres undefined)
T/C (dose: 25.0 mg/kg/injection, schedule: Q01DX009 (ip), vehicle: saline with Tween-80): 93 % of control
T/C [4]: 100 % of control

c1ccc2c(c1)Nc1c(ccc3ccccc13)S2
T/C [4]: 95 % of control
T/C (dose: 50.0 mg/kg/injection, schedule: Q01DX009 (ip), vehicle: saline): 102 % of control
T/C [5]: 112 % of control
T/C (dose: 100.0 mg/kg/injection, schedule: Q01DX009 (ip), vehicle: saline): 98 % of control
T/C [6]: 113 % of control
T/C (dose: 200.0 mg/kg/injection, schedule: Q01DX009 (ip), vehicle: saline): 109 % of control
T/C [11]: 113 % of control
T/C (dose: 400.0 mg/kg/injection, schedule: Q01DX009 (ip), vehicle: saline): 100 % of control
